Data set [1] is described as follows: feeding of treated feed to livestock / poultry. Type of data set: in vivo. The text has this: The preferred proportion of sodium percarbonate will vary for the specific animal feed composition and the specific animal consuming the feed as well as various environmental factors.
The nature of data set [2]: stability under pressure steam sterilization. Format: physicochemical.
Data set [3] concerns microbes present in animal feeds. The data set can be described thus: laboratory tests of anti-microbial action in animal feed. The source says:
These properties make sodium percarbonate an ideal feed additive for animal feeds. In the preferred embodiments of the present invention sodium percarbonate is included in the feed formulations prior to the pellet forming process common to most animal feed processing procedures. […] This is due to the broad disinfection action of the sodium percarbonate upon all bacteria and the spores of bacteria, fungi, and algae.
Such mammalian animal proteins have been banned throughout Europe although they continue to be used in other parts of the world. Otherwise the animal feeds in accordance with present invention are substantially the same as conventional animal feeds with the addition of sodium percarbonate.

On to `O=C([O-])[O-].O=C([O-])[O-].OO.OO.OO.[Na+].[Na+].[Na+].[Na+]` [sodium percarbonate], for which the “acceptance of treated feed” value in data set [1] (livestock) was “readily accepted”. Also, in data set [1] (poultry, rates of 2-8% by weight in feed), the digestive reactions entry is reported as “no untold digestive reactions”. The stability entry in data set [2] is listed as “very stable”. In addition, the “effectiveness depending on feed composition” value in data set [3] (animal feeds that do not include mammalian animal proteins) is reported as “greatest”. In addition, the anti-microbial effectiveness result in data set [3] (laboratory tests, all bacteria and spores of bacteria, fungi, algae) is reported as “effective against all microbes present in animal feeds”.

Values taken from patent US20030207014A1, “Animal feed and additive for animal feed to control feed borne pathogens” (priority 2002, published 2003).
